Measurements from patent US6737383B1, “Herbicidal oxadiazolidines” (priority 1999, dated 2004).

What was measured:
crabgrass = assay: Test B pre/postemergence crabgrass; format: in vivo, Digitaria sanguinalis
In short: (§1)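 Herbicidal effect was estimated by eye on a ten-point control scale after plants spent twelve to sixteen days in a greenhouse following soil or foliar treatment. Foliar sprays targeted plants at one to four leaves; all doses were formulated in a non-phytotoxic solvent with surfactant.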

sugar beet = assay: Test B pre/postemergence sugar beet; format: in vivo, Beta vulgaris
In short: as §1

blackgrass = assay: Test B pre/postemergence blackgrass; format: in vivo, Alopecurus myosuroides
In short: as §1

corn = assay: Test B pre/postemergence corn; format: in vivo, Zea mays
In short: as §1

morningglory = assay: Test B pre/postemergence morningglory; format: in vivo, Ipomoea hederacea
In short: as §1

cocklebur = assay: Test B pre/postemergence cocklebur; format: in vivo, Xanthium strumarium
In short: as §1

pigweed = assay: Test B pre/postemergence pigweed; format: in vivo, Amaranthus retroflexus
In short: as §1

wheat = assay: Test B pre/postemergence wheat; format: in vivo, Triticum aestivum
In short: as §1

purple nutsedge = assay: Test B pre/postemergence purple nutsedge; format: in vivo, Cyperus rotundus
In short: as §1

soybean = assay: Test B pre/postemergence soybean; format: in vivo, Glycine max
In short: as §1

bedstraw = assay: Test B pre/postemergence bedstraw; format: in vivo, Galium aparine
In short: as §1

velvetleaf = assay: Test B pre/postemergence velvetleaf; format: in vivo, Abutilon theophrasti
In short: as §1

surinam grass = assay: Test B pre/postemergence surinam grass; format: in vivo, Brachiaria decumbens
In short: as §1

wild oat = assay: Test B pre/postemergence wild oat; format: in vivo, Avena fatua
In short: as §1

rape = assay: Test B pre/postemergence rape; format: in vivo, Brassica napus
In short: as §1

giant foxtail = assay: Test B pre/postemergence giant foxtail; format: in vivo, Setaria faberii
In short: as §1

[1] = Postemergence, Rate 62 g/ha, scale 0 to 10, 0 is no effect, 10 is complete control
[2] = Postemergence, Rate 125 g/ha, scale of 0 to 10 where 0 is no effect and 10 is complete control
[3] = Postemergence, Rate 500 g/ha, scale 0 (no effect) to 10 (complete control)
[4] = Preemergence, Rate 250 g/ha, scale 0 (no effect) to 10 (complete control)
[5] = Rate 62 g/ha, Preemergence, scale 0 to 10
[6] = Rate 125 g/ha, Preemergence, scale 0 to 10 (0 no effect, 10 complete control)
[7] = Rate 250 g/ha, Postemergence, scale 0 to 10, 0 is no effect, 10 is complete control
[8] = Rate 500 g/ha, Preemergence, scale 0 to 10 (0 no effect, 10 complete control)
[9] = Rate 500 g/ha, Postemergence, scale 0 to 10, 0 is no effect, 10 is complete control

C#CCCn1c(=O)on(C(=O)N(c2ccc(F)cc2)C(C)C)c1=O [Compound 767]
Plant response rating, Crabgrass (crabgrass; [1]): 8 | Crabgrass plant response rating (crabgrass; [2]): 8 | Crabgrass plant response rating (crabgrass; [3]): 9 | Crabgrass plant response rating (crabgrass; [4]): 10 | Crabgrass plant response rating (crabgrass; [5]): 10 | Crabgrass plant response rating (crabgrass; [6]): 10 | Crabgrass plant response rating (crabgrass; [7]): 9 | Crabgrass plant response rating (crabgrass; [8]): 10 | Plant response rating, Sugarbeets (sugar beet; [1]): 3 | Sugarbeets plant response rating (sugar beet; [3]): 7 | Sugarbeets plant response rating (sugar beet; [5]): 2 | Sugarbeets plant response rating (sugar beet; [6]): 6 | Sugarbeets plant response rating (sugar beet; [7]): 5 | Sugarbeets plant response rating (sugar beet; [8]): 9 | Plant response rating, Blackgrass (blackgrass; [1]): 9 | Blackgrass plant response rating (blackgrass; [2]): 9 | Blackgrass plant response rating (blackgrass; [3]): 9 | Blackgrass plant response rating (blackgrass; [4]): 10 | Blackgrass plant response rating (blackgrass; [5]): 10 | Blackgrass plant response rating (blackgrass; [6]): 10 | Blackgrass plant response rating (blackgrass; [7]): 9 | Blackgrass plant response rating (blackgrass; [8]): 10 | Plant response rating, Corn (corn; [1]): 0 | Corn plant response rating (corn; [2]): 0 | Corn plant response rating (corn; [3]): 2 | Corn plant response rating (corn; [4]): 0 | Corn plant response rating (corn; [5]): 0 | Corn plant response rating (corn; [6]): 0 | Corn plant response rating (corn; [7]): 0 | Corn plant response rating (corn; [8]): 5 | Plant response rating, Morningglory (morningglory; [1]): 5 | Morningglory plant response rating (morningglory; [2]): 5 | Morningglory plant response rating (morningglory; [3]): 7 | Morningglory plant response rating (morningglory; [5]): 0 | Morningglory plant response rating (morningglory; [6]): 0 | Morningglory plant response rating (morningglory; [7]): 5 | Morningglory plant response rating (morningglory; [8]): 0 | Plant response rating, Cocklebur (cocklebur; [1]): 2 | Cocklebur plant response rating (cocklebur; [2]): 2 | Cocklebur plant response rating (cocklebur; [3]): 2 | Cocklebur plant response rating (cocklebur; [4]): 0 | Cocklebur plant response rating (cocklebur; [5]): 0 | Cocklebur plant response rating (cocklebur; [6]): 0 | Cocklebur plant response rating (cocklebur; [7]): 2 | Cocklebur plant response rating (cocklebur; [8]): 0 | Plant response rating, Redroot pigweed (pigweed; [1]): 6 | Redroot pigweed plant response rating (pigweed; [2]): 9 | Redroot pigweed plant response rating (pigweed; [3]): 9 | Redroot pigweed plant response rating (pigweed; [5]): 10 | Redroot pigweed plant response rating (pigweed; [6]): 10 | Redroot pigweed plant response rating (pigweed; [7]): 9 | Redroot pigweed plant response rating (pigweed; [8]): 10 | Plant response rating, Wheat (wheat; [1]): 0 | Wheat plant response rating (wheat; [3]): 2 | Wheat plant response rating (wheat; [5]): 0 | Wheat plant response rating (wheat; [6]): 5 | Wheat plant response rating (wheat; [7]): 2 | Wheat plant response rating (wheat; [8]): 5 | Plant response rating, Nutsedge (purple nutsedge; [1]): 0 | Nutsedge plant response rating (purple nutsedge; [2]): 0 | Nutsedge plant response rating (purple nutsedge; [3]): 7 | Nutsedge plant response rating (purple nutsedge; [5]): 0 | Nutsedge plant response rating (purple nutsedge; [6]): 0 | Nutsedge plant response rating (purple nutsedge; [7]): 0 | Nutsedge plant response rating (purple nutsedge; [8]): 0 | Plant response rating, Soybean (soybean; [1]): 1 | Soybean plant response rating (soybean; [3]): 7 | Soybean plant response rating (soybean; [5]): 0 | Soybean plant response rating (soybean; [6]): 0 | Soybean plant response rating (soybean; [7]): 4 | Soybean plant response rating (soybean; [8]): 2 | Plant response rating, Bedstraw (bedstraw; [1]): 7 | Bedstraw plant response rating (bedstraw; [2]): 7 | Bedstraw plant response rating (bedstraw; [3]): 9 | Bedstraw plant response rating (bedstraw; [6]): 0 | Bedstraw plant response rating (bedstraw; [7]): 7 | Bedstraw plant response rating (bedstraw; [8]): 8 | Plant response rating, Velvetleaf (velvetleaf; [1]): 2 | Velvetleaf plant response rating (velvetleaf; [3]): 3 | Velvetleaf plant response rating (velvetleaf; [5]): 0 | Velvetleaf plant response rating (velvetleaf; [6]): 0 | Velvetleaf plant response rating (velvetleaf; [7]): 2 | Velvetleaf plant response rating (velvetleaf; [8]): 2 | Plant response rating, B. signalgrass (surinam grass; [1]): 2 | B. signalgrass plant response rating (surinam grass; [2]): 2 | B. signalgrass plant response rating (surinam grass; [7]): 6 | B. signalgrass plant response rating (surinam grass; [9]): 7 | Plant response rating, Wild oats (wild oat; [1]): 0 | Wild oats plant response rating (wild oat; [3]): 3 | Wild oats plant response rating (wild oat; [5]): 9 | Wild oats plant response rating (wild oat; [7]): 0 | Wild oats plant response rating (wild oat; [8]): 9 | Rape plant response rating (rape; [5]): 4 | Rape plant response rating (rape; [6]): 6 | Rape plant response rating (rape; [8]): 10 | Plant response rating, Giant foxtail (giant foxtail; [1]): 8 | Giant foxtail plant response rating (giant foxtail; [2]): 8 | Giant foxtail plant response rating (giant foxtail; [3]): 9 | Giant foxtail plant response rating (giant foxtail; [4]): 10 | Giant foxtail plant response rating (giant foxtail; [5]): 10 | Giant foxtail plant response rating (giant foxtail; [6]): 10 | Giant foxtail plant response rating (giant foxtail; [7]): 9 | Giant foxtail plant response rating (giant foxtail; [8]): 10

COc1ccc(N(C(=O)n2oc(=O)n(C(C)C)c2=O)C(C)C)cc1 [Compound 780]
Plant response rating, Crabgrass (crabgrass; [1]): 3 | Crabgrass plant response rating (crabgrass; [2]): 4 | Crabgrass plant response rating (crabgrass; [3]): 7 | Crabgrass plant response rating (crabgrass; [4]): 10 | Crabgrass plant response rating (crabgrass; [5]): 10 | Crabgrass plant response rating (crabgrass; [6]): 10 | Crabgrass plant response rating (crabgrass; [7]): 7 | Crabgrass plant response rating (crabgrass; [8]): 10 | Plant response rating, Sugarbeets (sugar beet; [1]): 0 | Sugarbeets plant response rating (sugar beet; [3]): 0 | Sugarbeets plant response rating (sugar beet; [5]): 2 | Sugarbeets plant response rating (sugar beet; [6]): 2 | Sugarbeets plant response rating (sugar beet; [7]): 0 | Sugarbeets plant response rating (sugar beet; [8]): 6 | Plant response rating, Blackgrass (blackgrass; [1]): 0 | Blackgrass plant response rating (blackgrass; [2]): 2 | Blackgrass plant response rating (blackgrass; [3]): 4 | Blackgrass plant response rating (blackgrass; [4]): 9 | Blackgrass plant response rating (blackgrass; [5]): 2 | Blackgrass plant response rating (blackgrass; [6]): 6 | Blackgrass plant response rating (blackgrass; [7]): 4 | Blackgrass plant response rating (blackgrass; [8]): 9 | Plant response rating, Corn (corn; [1]): 0 | Corn plant response rating (corn; [2]): 0 | Corn plant response rating (corn; [3]): 6 | Corn plant response rating (corn; [4]): 6 | Corn plant response rating (corn; [5]): 2 | Corn plant response rating (corn; [6]): 2 | Corn plant response rating (corn; [7]): 3 | Corn plant response rating (corn; [8]): 9 | Plant response rating, Morningglory (morningglory; [1]): 4 | Morningglory plant response rating (morningglory; [2]): 4 | Morningglory plant response rating (morningglory; [3]): 8 | Morningglory plant response rating (morningglory; [5]): 0 | Morningglory plant response rating (morningglory; [6]): 0 | Morningglory plant response rating (morningglory; [7]): 7 | Morningglory plant response rating (morningglory; [8]): 2 | Plant response rating, Cocklebur (cocklebur; [1]): 0 | Cocklebur plant response rating (cocklebur; [2]): 0 | Cocklebur plant response rating (cocklebur; [3]): 0 | Cocklebur plant response rating (cocklebur; [4]): 2 | Cocklebur plant response rating (cocklebur; [5]): 0 | Cocklebur plant response rating (cocklebur; [6]): 0 | Cocklebur plant response rating (cocklebur; [7]): 0 | Cocklebur plant response rating (cocklebur; [8]): 2 | Plant response rating, Redroot pigweed (pigweed; [1]): 0 | Redroot pigweed plant response rating (pigweed; [2]): 0 | Redroot pigweed plant response rating (pigweed; [3]): 0 | Redroot pigweed plant response rating (pigweed; [5]): 0 | Redroot pigweed plant response rating (pigweed; [6]): 3 | Redroot pigweed plant response rating (pigweed; [7]): 0 | Redroot pigweed plant response rating (pigweed; [8]): 6 | Plant response rating, Wheat (wheat; [1]): 0 | Wheat plant response rating (wheat; [3]): 2 | Wheat plant response rating (wheat; [5]): 0 | Wheat plant response rating (wheat; [6]): 6 | Wheat plant response rating (wheat; [7]): 0 | Wheat plant response rating (wheat; [8]): 9 | Plant response rating, Nutsedge (purple nutsedge; [1]): 0 | Nutsedge plant response rating (purple nutsedge; [2]): 0 | Nutsedge plant response rating (purple nutsedge; [3]): 4 | Nutsedge plant response rating (purple nutsedge; [5]): 0 | Nutsedge plant response rating (purple nutsedge; [6]): 0 | Nutsedge plant response rating (purple nutsedge; [7]): 4 | Plant response rating, Soybean (soybean; [1]): 3 | Soybean plant response rating (soybean; [3]): 4 | Soybean plant response rating (soybean; [5]): 0 | Soybean plant response rating (soybean; [6]): 0 | Soybean plant response rating (soybean; [7]): 0 | Soybean plant response rating (soybean; [8]): 3 | Plant response rating, Bedstraw (bedstraw; [1]): 0 | Bedstraw plant response rating (bedstraw; [2]): 0 | Bedstraw plant response rating (bedstraw; [4]): 0 | Bedstraw plant response rating (bedstraw; [5]): 0 | Bedstraw plant response rating (bedstraw; [6]): 0 | Bedstraw plant response rating (bedstraw; [8]): 2 | Plant response rating, Velvetleaf (velvetleaf; [1]): 0 | Velvetleaf plant response rating (velvetleaf; [3]): 4 | Velvetleaf plant response rating (velvetleaf; [5]): 0 | Velvetleaf plant response rating (velvetleaf; [6]): 3 | Velvetleaf plant response rating (velvetleaf; [7]): 4 | Velvetleaf plant response rating (velvetleaf; [8]): 5 | Plant response rating, B. signalgrass (surinam grass; [1]): 0 | B. signalgrass plant response rating (surinam grass; [2]): 5 | B. signalgrass plant response rating (surinam grass; [4]): 8 | B. signalgrass plant response rating (surinam grass; Rate 62 g/ha, Preemergence, scale 0 (no effect) to 10 (complete control)): 6 | B. signalgrass plant response rating (surinam grass; [6]): 6 | B. signalgrass plant response rating (surinam grass; [7]): 5 | B. signalgrass plant response rating (surinam grass; [9]): 5 | B. signalgrass plant response rating (surinam grass; [8]): 4 | Plant response rating, Wild oats (wild oat; [1]): 0 | Wild oats plant response rating (wild oat; [3]): 2 | Wild oats plant response rating (wild oat; [5]): 0 | Wild oats plant response rating (wild oat; [6]): 0 | Wild oats plant response rating (wild oat; [7]): 2 | Wild oats plant response rating (wild oat; [8]): 9 | Plant response rating, Rape (rape; [1]): 0 | Rape plant response rating (rape; [2]): 0 | Rape plant response rating (rape; [3]): 0 | Rape plant response rating (rape; [5]): 0 | Rape plant response rating (rape; [6]): 0 | Rape plant response rating (rape; [7]): 0 | Rape plant response rating (rape; [8]): 6 | Plant response rating, Giant foxtail (giant foxtail; [1]): 7 | Giant foxtail plant response rating (giant foxtail; [2]): 8 | Giant foxtail plant response rating (giant foxtail; [3]): 9 | Giant foxtail plant response rating (giant foxtail; [4]): 10 | Giant foxtail plant response rating (giant foxtail; [5]): 10 | Giant foxtail plant response rating (giant foxtail; [6]): 10 | Giant foxtail plant response rating (giant foxtail; [7]): 9 | Giant foxtail plant response rating (giant foxtail; [8]): 10
